In US20190307729A1, “ANTIMICROBIAL COMPOUNDS AND METHODS FOR USE THEREOF” (VERSITECH LIMITED, priority 2016, published 2019):
“Also recorded” adds a separate entry of the source. Like-named read-outs stand apart in the source and are kept apart here.

Experiments:
hla promoter [1] = test: Paper disc diffusion and lux assay (hla promoter lux reporter); type: cell-based, S. aureus
Method: A single colony of bioluminescent S. aureus carrying the hla-promoter lux reporting system was resuspended in 200 μl of sterile water, diluted 1000-fold into 0.7% (w/v) BHI agar and overlaid onto BHI agar plates. 10 μl of the 50 mM analogues compounds dissolved in DMSO were impregnated to paper disc and placed on the lawn of bacteria. The plates were incubated overnight at 37° C. The luminescence was detected with Xenogen IVIS 100 in vivo imaging system (Xenogen, Alameda, Calif.).

Vero cells = test: Cytotoxicity assay (MTT); type: cell-based; conditions: for Cytotoxicity: MTT assays in Vero cells
Method: MTT assays are performed for selected compounds on Vero cells according to product instructions.

hla promoter [2] = test: Paper disc diffusion and lux assay (hla promoter lux reporter); type: cell-based, S. aureus; conditions: each compound used at 25 μM
S. aureus Mu3 [3] = test: BALB/c mice infection model, organ bacterial load; conditions: 3 days after infection
From the text: (§1) 6-8 weeks old female BALB/c mice were infected with 4×10^8 CFU of S. aureus. […] 3 days after infection, the animals were euthanized; kidneys, livers and spleens were homogenized in PBS, and plated on BHI agar for quantitative bacterial culture.

S. aureus USA300 = test: BALB/c mice infection model, organ bacterial load; conditions: 3 days after infection
From the text: as §1

S. aureus = test: MIC of compound 3 and analogues (Table 7, strain not given)
S. aureus Mu3 [4] = test: Secondary screening of compound 13 analogues in combination with gentamicin (growth by OD 595 nm); conditions: for activity at 5 µM / activity at 20 µM / activity at 50 µM / inhibition at 20 µM / inhibition at 50 µM: Staphylococcus aureus; for activity at 5 µM / activity at 20 µM / activity at 50 µM: MU3, 16 h, read-out: relative growth; for inhibition at 20 µM: MU3, read-out: 20 μM + 200 μg/ml Gentamicin Growth inhibition Percentage; for inhibition at 50 µM: MU3, read-out: 50 μM + 200 μg/ml Gentamicin Growth inhibition Percentage; for relative growth: relative to DMSO = 1
Method: All screening is done in 384-well polystyrene microtiter plates (Greiner Bio-One). Overnight culture of Mu3 is washed with BHI medium 3 times, diluted and plated to give 5×10^5 CFU/mL per well. The plates are incubated at 37° C. for 16 hours and growth is monitored by optical density reading at 595 nm using an automated DTX 880 multimode detector. Screening using BHI medium is designated as the background screen. […] Sub MIC concentration of antibiotics is selected for screening. BHI containing a final concentration for gentamicin 156.25 μg/mL is used correspondingly for individual experiments. […] Screening results with various antibiotics is normalized with the background screening to calculate the percentage of growth inhibition.
Identical experimental procedures are performed as primary screening procedures, except different concentrations of selected compound are tested.
Secondary like screening was performed with different concentrations of each analogue compounds were tested with different gentamicin concentration, 50 μM, 20 μM and 5 μM compound concentration were used against, BHI containing, 0 μg/ml, 100 μg/ml and 200 μg/ml gentamicin.

S. aureus Mu3 strain = test: Microdilution checkerboard assay of compound with aminoglycosides; conditions: for Combinatory effect with gentamicin: checkerboard
Method: (§2) The Checkerboard assay is performed in 96-well microtitre plates. […] The antibiotics are 2 fold serially diluted along the ordinate, the compounds are added along the abscissa to generate the checkerboard concentration gradients between the compounds and the antibiotics. Bacterial culture are topped and incubated overnight. Bacterial growth is monitored by the OD absorbance at 595 nm.
(§3) The concentration tested range was from 500M to 0.98 μM. MICs higher than 500M were not determined.

E. coli = test: Checkerboard assay with gentamicin; type: cell-based, Escherichia coli
Method: Bacterial culture are topped and incubated overnight.

P. aeruginosa = test: Pigment formation (virulence suppression); type: cell-based, Pseudomonas aeruginosa
L. monocytogenes = test: Checkerboard assay with gentamicin
Method: as §2, §3

E. faecalis = test: Checkerboard assay with gentamicin
Method: as §2, §3

S. pneumoniae = test: Checkerboard assay with gentamicin
Method: as §2, §3

MRSA Mu3 = test: Minimal inhibitory concentration (MIC) test, broth micro-dilution; type: cell-based, Staphylococcus aureus; conditions: microbroth dilution
Method: Preliminary testing of the MIC value of three antibiotics (Gentamicin, Ceftriaxone, and Levofloxacin) against MRSA Mu3 was performed according to microbroth dilution methods. This was to establish the reference for the appropriate amount of antibiotics to be used for HTS for hit identification of compounds that could have synergistic activities or potentiate the antibiotic's antimicrobial effect. The MIC value of Gentamicin against MRSA Mu3 was determined to be 1000 μg/mL.

Molecule	repression in hla promoter lux reporter assay (hla promoter [1])	Cytotoxicity (Vero cells)	activity at 5 µM (S. aureus Mu3 [4]) [%]	activity at 20 µM (S. aureus Mu3 [4]) [%]	activity at 50 µM (S. aureus Mu3 [4]) [%]	inhibition at 20 µM (S. aureus Mu3 [4]) [%]	inhibition at 50 µM (S. aureus Mu3 [4]) [%]	relative growth (S. aureus Mu3 [4]; [Cpd] 5 μM, [Genta] 100 ug/ml)	relative growth (S. aureus Mu3 [4]; [Cpd] 5 μM, [Genta] 200 ug/ml)	relative growth (S. aureus Mu3 [4]; [Cpd] 20 μM, [Genta] 100 ug/ml)	relative growth (S. aureus Mu3 [4]; [Cpd] 20 μM, [Genta] 200 ug/ml)	relative growth (S. aureus Mu3 [4]; [Cpd] 50 μM, [Genta] 100 ug/ml)	relative growth (S. aureus Mu3 [4]; [Cpd] 50 μM, [Genta] 200 ug/ml)	cytotoxicity from Vero cell MTT assays (Vero cells)	Combinatory effect with gentamicin (S. aureus Mu3 strain)	combined effect with gentamicin in inhibiting growth (S. aureus Mu3 strain)	further results
O=C(O)CN1C(=O)/C(=C/c2ccc(OCc3ccccc3)cc2)SC1=S [Compound 3]	significant repression	Low	118	109	88	60	92	1.12	1.18	0.94	0.4	*0.09	*0.08	–	–	–	Relative lux signal (hla promoter [2]): 0.00439; kidney bacterial load (S. aureus Mu3 [3]): reduction; also recorded: reduce kidney bacterial load; liver bacterial load (S. aureus Mu3 [3]): reduction; also recorded: reduce liver bacterial load; spleen bacterial load (S. aureus Mu3 [3]): reduction; also recorded: reduce spleen bacterial load; liver bacterial load (S. aureus USA300): reduction; also recorded: reduce liver bacterial load; spleen bacterial load (S. aureus USA300): reduction; also recorded: reduce spleen bacterial load; MIC (S. aureus; Staphylococcus aureus): 500 µM
O=C(O)CN1C(=O)/C(=C/c2cccc(OCc3ccccc3Cl)c2)SC1=S [Compound 19]	–	Medium	99	91	76	91	92	0.96	0.83	*0.1	*0.09	*0.09	*0.08	less cytotoxicity	Potentiating	promising potentiating effect	combined effect with gentamicin in inhibiting growth (S. aureus Mu3 strain; listed as compound 19): potentiating effect
CCOc1cc(/C=C2\SC(=S)N(CC(=O)O)C2=O)ccc1OCc1ccc(Cl)cc1 [Compound 20]	–	Medium/Low	101	78	91	91	86	0.96	0.88	*0.14	*0.09	*0.17	*0.14	less cytotoxicity	Potentiating	promising potentiating effect	combined effect with gentamicin in inhibiting growth (S. aureus Mu3 strain; listed as compound 20): potentiating effect
CCCOc1ccc(/C=C2\SC(=S)N(CC(=O)O)C2=O)cc1 [Compound 48]	significant repression	–	98	95	87	36	69	0.97	0.96	0.97	0.64	0.8	*0.31	–	–	–	–
O=C(O)CN1C(=O)C(=Cc2ccc(OCc3ccc(Cl)cc3)cc2)SC1=S [Compound 82]	–	Low	–	–	–	–	–	0.98	0.61	*0.09	*0.09	*0.13	*0.11	low cytotoxicity	Potentiating	good level of potentiating effect	combined effect with gentamicin in inhibiting growth (E. coli): synergistic effect; combined effect with gentamicin in inhibiting growth (E. coli; listed as compound 82): potentiating effect; pigment formation (P. aeruginosa): repressing the pigment formation; combined effect with gentamicin in inhibiting growth (L. monocytogenes): potentiating effect; combined effect with gentamicin in inhibiting growth (E. faecalis): potentiating effect; combined effect with gentamicin in inhibiting growth (S. pneumoniae): potentiating effect; combined effect with neamine in inhibiting growth (S. aureus Mu3 strain): retained its potentiating effect; combined effect with neamine in inhibiting growth (S. aureus Mu3 strain; listed as compound 82): potentiating effect; 20 μM + 200 μg/ml Gentamicin Growth inhibition Percentage (S. aureus Mu3 [4]; 20 μM compound + 200 μg/ml gentamicin, S. aureus Mu3): 91%; 50 μM + 200 μg/ml Gentamicin Growth inhibition Percentage (S. aureus Mu3 [4]; 50 μM compound + 200 μg/ml gentamicin, S. aureus Mu3): 89%; relative growth (S. aureus Mu3 [4]; [Cpd] 5 μM, BHI only (no gentamicin)): 1.03; relative growth (S. aureus Mu3 [4]; [Cpd] 20 μM, BHI only (no gentamicin)): 0.78; relative growth (S. aureus Mu3 [4]; [Cpd] 50 μM, BHI only (no gentamicin)): 0.99
COc1ccc(/C=C2/SC(=S)N(CCC(N)=O)C2=O)cc1 [Compound 87]	hla promoter lux repression	–	–	–	–	–	–	–	–	–	–	–	–	–	–	–	Relative lux signal (hla promoter [2]): 0.2657; MIC (S. aureus): 500 µM
Gentamicin	–	–	–	–	–	–	–	–	–	–	–	–	–	–	–	–	MIC value against MRSA Mu3 (MRSA Mu3): 1000 µg/mL
